These results are taken from patent US8871777B2, “Phenylpyrimidone compounds, the pharmaceutical compositions, preparation methods and uses thereof” (Topharman Shanghai Co., Ltd., priority 2008, dated 2014).

In one test the target is T1, PDE6 in bovine retina (Bos taurus, UniProt P11541+P23439).
T1 construct: obtained by suitably treating various tissues and separating the enzyme with FPLC; from tissue; host or cells: bovine retina
T1 sequence (P11541 2-856 limits assumed): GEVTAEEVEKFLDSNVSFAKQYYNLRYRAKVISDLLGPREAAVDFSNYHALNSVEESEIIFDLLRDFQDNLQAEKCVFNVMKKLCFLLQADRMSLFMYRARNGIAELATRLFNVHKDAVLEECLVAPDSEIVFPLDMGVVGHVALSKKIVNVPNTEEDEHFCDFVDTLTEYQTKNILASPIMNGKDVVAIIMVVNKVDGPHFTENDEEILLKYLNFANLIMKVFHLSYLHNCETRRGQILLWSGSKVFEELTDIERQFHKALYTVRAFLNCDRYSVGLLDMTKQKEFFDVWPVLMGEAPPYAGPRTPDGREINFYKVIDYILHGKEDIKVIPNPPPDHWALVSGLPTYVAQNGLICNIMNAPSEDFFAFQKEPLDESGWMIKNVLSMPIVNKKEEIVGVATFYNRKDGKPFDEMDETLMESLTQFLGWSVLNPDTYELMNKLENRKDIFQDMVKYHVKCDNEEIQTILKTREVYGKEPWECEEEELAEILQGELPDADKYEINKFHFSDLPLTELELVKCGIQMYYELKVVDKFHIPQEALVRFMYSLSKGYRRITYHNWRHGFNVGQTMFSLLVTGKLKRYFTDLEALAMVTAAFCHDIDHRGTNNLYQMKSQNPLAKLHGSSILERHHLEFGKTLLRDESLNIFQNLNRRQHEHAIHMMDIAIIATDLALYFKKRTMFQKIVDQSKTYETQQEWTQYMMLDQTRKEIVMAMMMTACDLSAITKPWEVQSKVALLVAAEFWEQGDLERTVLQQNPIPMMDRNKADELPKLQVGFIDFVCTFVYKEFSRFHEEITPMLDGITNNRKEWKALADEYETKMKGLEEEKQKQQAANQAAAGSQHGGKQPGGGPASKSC
T1 sequence (P23439 2-850 limits assumed): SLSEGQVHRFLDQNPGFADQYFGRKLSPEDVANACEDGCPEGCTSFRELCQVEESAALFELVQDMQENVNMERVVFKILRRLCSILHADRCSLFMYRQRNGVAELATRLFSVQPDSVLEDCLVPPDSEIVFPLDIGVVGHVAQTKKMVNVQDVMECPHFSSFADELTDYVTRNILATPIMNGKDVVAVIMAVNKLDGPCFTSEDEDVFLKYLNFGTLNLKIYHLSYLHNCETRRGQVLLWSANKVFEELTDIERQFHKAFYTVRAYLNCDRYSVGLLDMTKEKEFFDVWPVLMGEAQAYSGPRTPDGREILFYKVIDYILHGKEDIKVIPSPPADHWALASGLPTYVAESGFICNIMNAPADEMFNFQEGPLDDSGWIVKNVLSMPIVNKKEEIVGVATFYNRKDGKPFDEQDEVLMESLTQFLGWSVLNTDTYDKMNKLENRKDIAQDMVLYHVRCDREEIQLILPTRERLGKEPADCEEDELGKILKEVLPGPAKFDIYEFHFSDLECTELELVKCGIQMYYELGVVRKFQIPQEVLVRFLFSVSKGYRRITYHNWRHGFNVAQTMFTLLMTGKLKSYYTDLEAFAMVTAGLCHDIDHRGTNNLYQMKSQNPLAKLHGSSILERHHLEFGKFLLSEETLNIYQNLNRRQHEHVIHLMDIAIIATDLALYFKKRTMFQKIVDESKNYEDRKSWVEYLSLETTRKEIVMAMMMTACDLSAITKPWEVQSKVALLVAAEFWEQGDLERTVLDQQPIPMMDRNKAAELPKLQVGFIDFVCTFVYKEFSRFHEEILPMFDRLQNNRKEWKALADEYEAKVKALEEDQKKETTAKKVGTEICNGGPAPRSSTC
Description: PDE6 enzyme inhibition activity test (scintillation proximity). It counts as biochemical. As to conditions: for IC50: PDE6 separated from bovine retina, read-out: PDE6 IC50; for PDE6 IC50/PDE5 IC50: selectivity, ratio of IC50 PDE6/IC50 PDE5. Summed up:
(§1)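 Enzymes were used immediately after isolation: PDE6 from bovine retina, PDE5 from human platelets. Each was incubated 30 min at 30 °C with varying inhibitor concentrations and a small amount of substrate in Tris/HCl pH 7.5 buffer with MgCl2 and EGTA. Reactions were quenched with zinc-sulphate yttrium silicate SPA beads and product counted by scintillation.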
For orientation: SPA uses beads or plates that emit light when radiolabelled molecules are held near them.

Test [1] deals with T2, human blood platelet PDE5 (Homo sapiens, UniProt O76074).
T2 construct: obtained by suitably treating various tissues and separating the enzyme with FPLC; from tissue; host or cells: human blood platelets
Briefly: PDE5 enzyme inhibition activity test (scintillation proximity). It is filed as biochemical. In short, it runs like this:
as §1

What is called IC50 is the midpoint of a concentration-inhibition curve. With `CCCOc1ccc(NC(N)=O)cc1-c1nc(CC)c(CC)c(=O)[nH]1` [Example 67, 1-(3-(4,5-Diethyl-1,6-dihydro-6-oxopyrimidin-2-yl)-4-n-propoxyphenyl)urea], the IC50 on PDE6 in bovine retina was found to be 26.9 nM; in test [1] (PDE5 table), 1.61 nM; in test [1] (as repeated in the PDE6 table) it was 1.61 nM. The “PDE6 IC50/PDE5 IC50” value at PDE6 in bovine retina was determined as 16.7.
In the case of `CCCOc1ccc(C(=O)N2CCN(CCOCCO)CC2)cc1-c1nc(CC)c(CC)c(=O)[nH]1` [Example 163], the figures for the IC50 (on PDE6 in bovine retina; in test [1] (PDE5 table); in test [1] (as repeated in the PDE6 table)) were 48.6 nM, 7.92 nM and 7.92 nM, respectively. For the same compound, the “PDE6 IC50/PDE5 IC50” value on PDE6 in bovine retina was 6.1.
In the case of `CCCOc1ccc(NC(=O)N2CCCC2)cc1-c1nc(CC)c(CC)c(=O)[nH]1` [Example 49], the IC50 at PDE6 in bovine retina is 620 nM; in test [1] (PDE5 table) it was 1.86 nM; in test [1] (as repeated in the PDE6 table), 1.86 nM. The “PDE6 IC50/PDE5 IC50” value on PDE6 in bovine retina was 10.5.
`CCCOc1ccc(NC(=O)CC)cc1-c1nc(CC)c(CC)c(=O)[nH]1` [Example 54, N-(3-(1,6-dihydro-4,5-diethyl-6-oxopyrimidin-2-yl)-4-propoxyphenyl)propionamide]: the IC50 is 13.2 nM on PDE6 in bovine retina, 1.21 nM in test [1] (PDE5 table) and 1.21 nM in test [1] (as repeated in the PDE6 table). For the same compound, the “PDE6 IC50/PDE5 IC50” value at PDE6 in bovine retina is reported as 10.9.
Turning to `CCCOc1ccc(NC(=O)C2CC(O)CN2C(=O)OC(C)(C)C)cc1-c1nc(CC)c(CC)c(=O)[nH]1` (stereo not shown) [Example 57, N-(3-(1,6-dihydro-4,5-diethyl-6-oxopyrimidin-2-yl)-4-propoxyphenyl)-1-t-butyloxycarbonyl-4-hydroxyprolylamide], the figures for the IC50 (on PDE6 in bovine retina; in test [1] (PDE5 table); in test [1] (as repeated in the PDE6 table)) were 8.19 nM, 1.19 nM and 1.19 nM, respectively. Further, on PDE6 in bovine retina, the “PDE6 IC50/PDE5 IC50” value is 6.9.
Consider `CCCOc1ccc(N/C(=N/CC)N(CC)CC)cc1-c1nc(CC)c(CC)c(=O)[nH]1` [Example 46, N-[3-(4,5-diethyl-1,6-dihydro-6-oxopyrimidin-2-yl)-4-n-propoxyphenyl]-N′,N″-triethylguanidine], for which the IC50 turned out to be 642 nM at PDE6 in bovine retina, 1.09 nM in test [1] (PDE5 table) and 1.09 nM in test [1] (as repeated in the PDE6 table). Moreover, the “PDE6 IC50/PDE5 IC50” value at PDE6 in bovine retina turned out to be 589.0.
As to `CCCOc1ccc(C(=O)N2CCN(CCO)CC2)cc1-c1nc(CC)c(CC)c(=O)[nH]1` [Example 164], the IC50 on PDE6 in bovine retina came to 31.8 nM; in test [1] (PDE5 table), 0.46 nM; in test [1] (as repeated in the PDE6 table) it was 0.46 nM. Besides, the “PDE6 IC50/PDE5 IC50” value on PDE6 in bovine retina is reported as 68.7.
As for `CCCOc1ccc(C(=O)NCC(=O)OCC)cc1-c1nc(CC)c(CC)c(=O)[nH]1` [Example 89, Ethyl 2-(3-(4,5-diethyl-1,6-dihydro-6-oxopyrimidin-2-yl)-4-n-propoxybenzamido)acetate], the IC50 at PDE6 in bovine retina amounted to 11.7 nM; in test [1] (PDE5 table) it was 1.98 nM; in test [1] (as repeated in the PDE6 table), 1.98 nM. Besides, the “PDE6 IC50/PDE5 IC50” value at PDE6 in bovine retina is reported as 5.88.
Take `CCCOc1ccc(C(=O)NC2CCC(C(=O)OC)NC2)cc1-c1nc(CC)c(CC)c(=O)[nH]1` (stereo not shown) [Example 174, methyl 5-(3-(4,5-diethyl-1,6-dihydro-6-oxopyrimidin-2-yl)-4-n-propoxybenzamido)piperidine-2-formate]: the half-maximal inhibitory concentration (IC50) at PDE6 in bovine retina was determined as 13.7 nM; in test [1] (PDE5 table), 0.45 nM; in test [1] (as repeated in the PDE6 table), 0.45 nM. Also, the “PDE6 IC50/PDE5 IC50” value on PDE6 in bovine retina came to 30.3.
In the case of `CCCOc1ccc(NC(=O)NCC)cc1-c1nc(CC)c(CC)c(=O)[nH]1` [Example 68, 1-(3-(4,5-Diethyl-1,6-dihydro-6-oxopyrimidin-2-yl)-4-n-propoxyphenyl)-3-ethylurea], the IC50 was 16.4 nM at PDE6 in bovine retina, 0.53 nM in test [1] (PDE5 table) and 0.53 nM in test [1] (as repeated in the PDE6 table). Moreover, the “PDE6 IC50/PDE5 IC50” value on PDE6 in bovine retina stood at 31.0.
Consider `CCCOc1ccc(NC(=O)NCCN(CC)CC)cc1-c1nc(CC)c(CC)c(=O)[nH]1.O=C(O)/C=C\C(=O)O` [Example 204, 1-(2-(Diethylamino)ethyl)-3-(3-(4,5-diethyl-1,6-dihydro-6-oxopyrimidin-2-yl)-4-n-propoxyphenyl)urea maleate], for which the figures for the IC50 (at PDE6 in bovine retina; in test [1] (PDE5 table); in test [1] (as repeated in the PDE6 table)) were 54.5 nM, 0.88 nM and 0.88 nM, respectively. The “PDE6 IC50/PDE5 IC50” value on PDE6 in bovine retina was 61.9.
Turning to `CCCOc1ccc(C(=O)N2CCOCC2)cc1-c1nc(C(C)C)c(Br)c(=O)[nH]1` [Example 63, (Morpholin-1-yl)(3-(4-isopropyl-5-bromo-1,6-dihydro-6-oxopyrimidin-2-yl)-4-n-propoxy)benzophenone], the IC50 on PDE6 in bovine retina was determined as 33.4 nM; in test [1] (PDE5 table), 1.24 nM; in test [1] (as repeated in the PDE6 table), 1.24 nM. At PDE6 in bovine retina, the “PDE6 IC50/PDE5 IC50” value was 26.9.
As to `CCCOc1ccc(C(=O)CN2CCOCC2)cc1-c1nc(CC)c(CC)c(=O)[nH]1` [Example 76, 5,6-diethyl-2-(5-(2-morpholinylacetyl)-2-n-propoxyphenyl)pyrimid-4(3H)-one], the IC50 stood at 25.2 nM on PDE6 in bovine retina, 1.99 nM in test [1] (PDE5 table) and 1.99 nM in test [1] (as repeated in the PDE6 table). Moreover, the “PDE6 IC50/PDE5 IC50” value on PDE6 in bovine retina was determined as 12.7.
For the compound `CCCOc1ccc(NC(=O)C2CCCN2C(C)=O)cc1-c1nc(CC)c(CC)c(=O)[nH]1` (stereo not shown) [Example 108, 1-acetyl-N-(3-(4,5-diethyl-1,6-dihydro-6-oxopyrimidin-2-yl)-4-n-propoxyphenyl)pyrrolidinyl-2-formamide], the IC50 was found to be 5.73 nM on PDE6 in bovine retina, 0.54 nM in test [1] (PDE5 table) and 0.54 nM in test [1] (as repeated in the PDE6 table). Besides, on PDE6 in bovine retina, the “PDE6 IC50/PDE5 IC50” value was found to be 6.99.
With `CCCOc1ccc(C(=O)NC(CC(N)=O)C(=O)O)cc1-c1nc(CC)c(CC)c(=O)[nH]1` (stereo not shown) [Example 146, 2-(3-(4,5-diethyl-1,6-dihydro-6-oxopyrimidin-2-yl)-4-n-propoxybenzamido)-3-aminoformylpropionic acid], the IC50 amounted to 6.64 nM on PDE6 in bovine retina, 0.93 nM in test [1] (PDE5 table) and 0.93 nM in test [1] (as repeated in the PDE6 table). The “PDE6 IC50/PDE5 IC50” value at PDE6 in bovine retina stood at 7.2.
For the compound `CCCOc1ccc(S(=O)(=O)N2CCN(CCO)CC2)cc1-c1nc(CC)c(CC)c(=O)[nH]1` [Example 133, 5,6-diethyl-2-(2-n-propoxy-5-(4-hydroxyethyl-1-piperazinylsulfonyl)phenyl]pyrimid-4(3H)-one], the figures for the IC50 (at PDE6 in bovine retina; in test [1] (PDE5 table); in test [1] (as repeated in the PDE6 table)) were 20.9 nM, 1.13 nM and 1.31 nM, respectively. Moreover, the “PDE6 IC50/PDE5 IC50” value on PDE6 in bovine retina is listed as 15.9.
